Measured values from patent publication US9945841B2, “Cell cycle measuring method based on an electrochemical method” (INDUSTRY-UNIVERSITY COOPERATION FOUNDATION SOGANG UNIVERSITY, priority 2011, dated 2018).

Experiments:
Format in all cases: cell-based, rat
phosphohistone (p-HH^3) = test: Western blot of synchronized PC12 cells, G2/M-phase specific protein p-HH3; details: Western blot of G1/S- or G2/M-blocked PC12 cells (FIG. 3d)
Experimental: (§1) The cell-immobilized electrode was treated with 2 mM thymidine in culture medium (RPMI 1640) for 18 hrs, followed by an 8 hrs release (replaced by fresh medium), and then again with 2 mM thymidine for another 18 hrs to block cells in G1/S-phase (FIG. 1c). Similarly, another cell-immobilized electrode was treated initially with 2 mM thymidine as mentioned before for 18 hrs, followed by a 4 hrs release (replaced by fresh medium), and then with 100 ng/ml of nocodazole for another 10 h to block cells in G2/M-phase (FIG. 1c). Therefore, the working electrodes were prepared for electrochemical signal analysis of the cells in different phases of the cell cycle. Furthermore, for the time-dependent progression of G1/S-phase towards G2/M-phase, G1/S-blocked cells were released in fresh medium containing 10% FBS for several hours to perform electrochemical measurements. The synchronized PC12 cell pellet was solubilized for 15 min at 4° C. in lysis buffer. Lysates were centrifuged at 13,000 g for 30 min at 4° C. in order to remove insoluble material. The supernatant was then collected, and the protein concentration was determined using BCA protein assay reagent (Pierce Chemicals). […]

PC12 cells [1] = test: FACS cell-cycle distribution of on-chip synchronized cells; details: 2 mM thymidine 18 hrs
Experimental: (§2) A silicon-based gold electrode was first cleaned with freshly prepared piranha solution (1:3 mixture of 30% H2O2 and concentrated H2SO4) for 5 min and then rinsed thoroughly with double-distilled water. The electrode was then carefully polished by sonication in absolute alcohol and double-distilled water for 5 min. Finally, the electrode was electrochemically cleaned in 0.5 M H2SO4 until a stable cyclic voltammogram was obtained and then dried with purified nitrogen. After the pretreatment, a well ordered oligopeptide (RGD-MAP-C) was fabricated on the freshly cleaned gold electrode as reported in our previous work (15). For the electrochemical measurements, a 2 cm×1 cm×0.5 cm (width×length×height) cell chip chamber was fabricated by fixing a plastic chamber (Lab-Tek®, Thermo fisher scientific, USA) to the Au working electrode using PDMS (Polydimethylsiloxane). Afterward, rat pheochromocytoma (PC12) cells were seeded on the electrode at a density of 2×10^5 cells/chip and then immobilized via RGD-integrin interaction for 24 hrs in a standard cell culture environment. The cell-immobilized electrode was treated with 2 mM thymidine in culture medium (RPMI 1640) for 18 hrs, followed by an 8 hrs release (replaced by fresh medium), and then again with 2 mM thymidine for another 18 hrs to block cells in G1/S-phase (FIG. 1c). […]

cyclin B1 = test: Western blot of synchronized PC12 cells, cyclin B1; details: Western blot of G1/S- or G2/M-blocked PC12 cells (FIG. 3d)
Experimental: as §1

PC12 cells [2] = test: Differential pulse voltammetry (DPV) of cells on Au/RGD-MAP-C cell chip; details: PC12 cells on Au electrode; double thymidine block; PBS 0.01 M pH 7.4; vs Ag/AgCl (FIG. 2b)
Experimental: as §2

| SMILES | p-HH^3 expression (phosphohistone (p-HH^3)) | cells synchronized in G2/M-phase (PC12 cells [1]; 4 hrs release, 100 ng/ml nocodazole 10 h, FACS (FIG. 3c)) [%] | cyclin B1 expression (cyclin B1) | DPV peak potential of G1/S-phase blocked cells (PC12 cells [2]) | cells fixed in G1/S-phase (PC12 cells [1]; 8 hrs release, FACS (FIG. 3b)) |
| --- | --- | --- | --- | --- | --- |
| COC(=O)Nc1nc2ccc(C(=O)c3cccs3)cc2[nH]1 [nocodazole] | expressed | ~72 |  |  |  |
| Cc1cn([C@H]2C[C@H](O)[C@@H](CO)O2)c(=O)[nH]c1=O [thymidine, Thymidine] | absent |  | expressed dominantly | +50 mV | Approximately 75% |
